In US10821096B1, “Compounds for inhibiting NS3 and compositions containing the inhibited protein” (priority 2019, dated 2020):

How the values were obtained:
[1] = molecular target: T1, NS3 (Hepatitis C virus genotype 4a, UniProt O39929, A1087S/A1113S/A1121T/A1128S/I1140V/I1160T/I1179L/R1118K/R1176A/S1127A); experiment: Binding and competition assay (fluorescence anisotropy, displacement of FITC-NS4A from NS3); parameters: species or system HCV genotype 4a; details: for binding affinity (in words): fluorescence anisotropy competition with FITC-NS4A
T1 construct: NS3 protease domain 1-181 aa+N-terminal T7 tag and C-terminal His tag; T7 tag (N); made in house; host or cells: E. coli Rosette (DE3) pLysS, vector pET-3a
T1 sequence (O39929 1027-1207 A1087S/A1113S/R1118K/A1121T/S1127A/A1128S/I1140V/I1160T/R1176A/I1179L): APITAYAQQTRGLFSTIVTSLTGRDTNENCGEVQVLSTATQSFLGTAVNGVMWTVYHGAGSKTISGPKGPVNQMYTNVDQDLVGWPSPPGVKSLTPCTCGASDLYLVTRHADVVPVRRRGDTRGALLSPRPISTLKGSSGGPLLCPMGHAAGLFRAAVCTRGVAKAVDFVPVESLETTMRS
Protocol: Binding buffer (20 mM HEPES, 10 mM DTT, 200 mM NaCl, pH 7.6), a mixture of NS3 (1.8 μM) and FITC-NS4A ([…]) at the calculated affinity constant concentration were placed in a 96-well plate as binding test solution. A serial dilution of MOC compounds (dissolved in 1.5% DMSO in binding buffer) (1/2 dilution starting from 150 μM to 0.292 μM) was mixed gently with the binding text solution for 60 minutes in the dark. The dissociation constant was calculated according to the recommended equation embedded in GraphPad Prism v8.
The binding affinity test was performed using fluorescence anisotropy technique. In this test, maximum fluorescence was first determined at optimal ratio of NS3 (1.8 μM) and FITC-NS4A (0.1 μM). Compounds that compete with NS4A should be able to decrease the fluorescence of this mixture because they prevent the binding to occur and it should be concentration-dependent. […] The reproducibility was checked using another batch of the express NS3 protein following the same procedure and the value was calculated=7.815±1.014 μM. […] Therefore, compound MOC-23 was tested for its ability to inhibit the NS3 enzyme.

[2] = molecular target: T1, NS3; experiment: Enzyme inhibition assay (SensoLyte-520 HCV protease assay kit, FRET peptide); assay type: biochemical, HCV genotype 4a; details: MOC-23 at 6.3 μM, NS3 4.0 μM, 5-FAM/QXL520 FRET peptide
Protocol: The assay was performed using SensoLyte-520® HCV protease assay kit Fluorometric® (Anaspec, Fremont, Calif., USA) according to a modified procedure to suit the purpose of determination of allosteric inhibition. NS3 (4.0 μM) was mixed with MOC-23 (6.3 μM) for 15 minutes. Afterwards, 5-FAM/QXL™520 fluorescence resonance energy transfer (FRET) peptide was added as instructed by the assay kit manual. The sequence of this FRET peptide (5-FAM-SLGRKIQIQ) is derived from the cleavage site of NS4A/NS4B. In the FRET peptide, the fluorescence of 5-FAM is quenched by QXL™520. Upon cleavage into two separate fragments by HCV NS3/4A protease, the fluorescence of 5-FAM is recovered, and can be monitored at 490 nm/520 nm (excitation/emission). Controls included buffer, compound, compound+NS3, NS3+NS4A and FRET peptide separately. All test wells and controls were repeated in triplicates at the same 96-well plate.

Structure (SMILES): CCCCCCNC(=O)c1ncc(C(=O)NCCCCNC(=N)N)[nH]1 [MOC-24, N^5-(4-guanidinobutyl)-N^2-(n-hexyl)-1H-imidazole-2,5-dicarboxamide]
- binding affinity (in words) [1]: binding affinity at similar level

Structure (SMILES): CCCCCNC(=O)c1ncc(C(=O)NCCCCNC(=N)N)[nH]1 [MOC-23, N^5-(4-guanidinobutyl)-N^2-(n-pentyl)-1H-imidazole-2,5-dicarboxamide]
- inhibition of NS3 proteolytic activity [2]: abolished any proteolytic activity
- Kd ([1]; dissociation constant (reproducibility check), another batch of the expressed NS3 protein, same procedure): 7.81 ± 1.01 µM
- Kd ([1]; dissociation constant Kd (competition with FITC-NS4A), fluorescence anisotropy, NS3 1.8 μM, FITC-NS4A 0.1 μM, first batch of NS3): 6.3 ± 0.3 µM
- binding affinity (in words) [1]: highest affinity
